# Several values for one entry are separate records, joined by “and”; a condition that tells them apart may be missing. Equal entries are not always repeated.
# Columns and labels:
# [1] = system: rat striatal slices preloaded with [3H]DA; test: [3H]DA release assay: drug-evoked [3H]overflow / fractional release from rat striatal slices preloaded with [3H]DA; format: cell-based
# Experimental: Rat striata were rapidly dissected on ice and were sliced using a McIlwain tissue chopper. […] Slices were rinsed with 15 mL fresh buffer and then incubated in fresh buffer containing 0.1 μM [^3 H]DA (6-8 slices/3 mL) for an additional 30 min. Subsequently, slices were rinsed with 15 mL fresh buffer and transferred to a glass superfusion chamber. […] After 60 min of superfusion when basal outflow was stabilized, two 5-min samples (5 mL) were collected to determine basal [^3 H]outflow.
# The concentration-response for each drug was determined using a repeated-measures design.
# The pH and volume of the solubilized tissue samples were adjusted to those of the superfusate samples.
# Fractional release for each superfusate sample was calculated by dividing the tritium collected in each sample by the total tritium present in the tissue at the time of sample collection. Fractional release was expressed as a percentage of total tritium in the tissue at the time of sample collection. Basal outflow was calculated from the average of the tritium collected in the two 5-min samples just before the addition of drug.
# Inhibition of synaptosomal and vesicular [^3 H]DA uptake were analyzed by repeated-measures, one-way ANOVA, and by an iterative nonlinear least-squares curve-fitting program (GraphPAD-PRIZM; GraphPAD, San Diego, Calif.) to obtain IC50 values. Dunnett's post hoc test was used to compare treatment means to a single control mean. Also, Duncan's New Multiple Range Test or Fisher's LSD post hoc analysis were used to compare pairs of treatment means. Duncan's New Multiple Range Test was used when significant one-way ANOVA's were obtained or when significant main effects were obtained in the two-way ANOVA's. Fisher's LSD post hoc analysis is a more conservative test, which takes into account error which cumulates during multiple comparisons of pairs of means. Fisher's LSD analysis was used when the interaction term was significant in the two-way ANOVAs, specifically in the post hoc analysis of drug×time interactions. Statistical significance was reached when P<0.05 (two-tailed, unless otherwise indicated).
# [2] = system: rat striatal slices preloaded with [3H]DA; test: Mecamylamine antagonism of lobeline-evoked [3H]overflow from rat striatal slices; format: cell-based; design: lobeline-evoked total [3H]overflow: unit not given here
# [3] = system: rat striatal synaptic vesicles; test: [3H]DA release from striatal synaptic vesicles preloaded with [3H]DA; format: biochemical
# Experimental: The homogenate was then centrifuged at 2,000×g for 10 min at 4° C. and the resulting supernatant was centrifuged at 10,000×g for 30 min at 4° C. Synaptosomes (buffy coat) were separated from the underlying mitochondria and cellular debris (reddish pellet) by gentle swirling in 2 mL of 0.32 M sucrose. The enriched synaptosome fraction (2.0 mL) was subjected to osmotic shock by addition of 7 mL distilled H2 0 and was homogenized with 5 up and down strokes of the TEFLON pestle. The osmolarity was restored by the addition of 900 μL of 0.25 M HEPES and 900 μL of 1.0 M neutral potassium-tatrate buffer (pH 7.5) followed by a 20 min centrifugation (20,000×g at 4° C.). The supernatant was then centrifuged for 60 min (55,000×g at 4° C.).
# The final vesicle pellet from a pool of striata from three rats was resuspended in 3 mL of release assay buffer (in mM: 25 HEPES, 100 L-(+)-tartaric acid dipotassium salt, 0.05 EGTA, 0.10 EDTA, 2 Mg^2+ -ATP, and 1.7 ascorbic acid, pH 7.4) and then incubated with [^3 H]DA (0.3 μM) for 8 min at 37° C. […] [^3 H]DA efflux represents the net result of events, i.e., release and reuptake. […] The reaction was terminated by addition of 2.5 mL of ice-cold assay buffer containing 2 mM MgSO4. Samples were rapidly filtered through Whatman GF/F filters using the Brandel cell harvester.
# The amount of drug-induced [^3 H]DA release from synaptic vesicles was calculated by subtracting the amount of tritium remaining in the drug-exposed samples from that remaining in the control samples (in the absence of drug). The amount of drug-induced [^3 H]DA release was then divided by the amount of tritium remaining in the control samples and was expressed as a percentage of control.
# Concentration-response and kinetic data were analyzed by repeated-measures one-way ANOVA and between-group one-way ANOVA, respectively. When appropriate, Fisher's least significant difference post hoc test was used to determine significant differences between treatment means. IC50 and EC50 values were obtained by an iterative nonlinear least-squarescurve-fitting program (GraphPAD-PRIZM: GraphPAD, San Diego, Calif., U.S.A.) for one-site competition and sigmoidal concentration response, respectively. The t1/2 was obtained by an iterative nonlinear least-squares curve-fitting program for one-phase decay. KD and Bmax values were obtained by Scatchard analysis using an iterative linear least-squares curve-fitting program.
# [4] = system: monoamine oxidase; settings: cited from earlier work
# [5] = system: anesthetized rats; settings: urethane and pentobarbital anesthetized rats; cited from earlier work
smiles,measurement,setting,value
"CN1[C@@H](CC(=O)c2ccccc2)CCC[C@H]1C[C@H](O)c1ccccc1 [Lobeline, 2-[G-(β-hydroxyphenethyl)-1-methyl-2-piperidyl]-acetophenone]",effect on fractional release,"[1]; 3 μM, 15 and 20 min after addition",significant increase in fractional release
same,effect on fractional release (low concentrations),"[1]; 0.01-1 μM, entire superfusion period",did not significantly increase fractional release
same,effect on fractional release (high concentrations),"[1]; 10-100 μM, from 10 min after addition to end",significantly increased
same,calcium-dependency of [3H]overflow,[1]; calcium-free buffer vs control,not altered
same,effect on [3H]overflow compared to nicotine,[1]; higher concentrations (10-100 μM),8-34 fold
same,time of peak effect after start of exposure,[1]; lobeline,10 to 20 min
same,total [3H]overflow,"[1]; lobeline 0.1 μM, calcium-free buffer with 0.5 mM EGTA",0 ± 0
same,total [3H]overflow,"[1]; lobeline 0.1 μM, control buffer",0.6 ± 0.4
same,total [3H]overflow,"[1]; lobeline 1 μM, calcium-free buffer with 0.5 mM EGTA",2.9 ± 0.2
same,total [3H]overflow,"[1]; lobeline 1 μM, control buffer",2.0 ± 0.6
same,total [3H]overflow,"[1]; lobeline 10 μM, calcium-free buffer with 0.5 mM EGTA",45.0 ± 4.2
same,total [3H]overflow,"[1]; lobeline 10 μM, control buffer",31.9 ± 2.2
same,peak fractional release,[1]; lobeline 30 μM,approximately 15 % of total tritium in the slice
same,peak fractional release,[1]; lobeline 100 μM,~30 % of total tritium in the slice
same,total [3H]overflow,"[1]; lobeline 100 μM, calcium-free buffer with 0.5 mM EGTA",185.0 ± 12.0
same,total [3H]overflow,"[1]; lobeline 100 μM, control buffer",198.0 ± 20
same,fractional release over the remainder of the superfusion period,[1]; lobeline 30 and 100 μM,10-20 % of total tritium in the slice
same,minimal effective concentration,[1]; read-out: lowest concentration which evoked a significant increase in [3H]overflow,1 µM
same,lobeline-evoked total [3H]overflow,"[2]; lobeline 0.1 μM, mecamylamine 0 μM",0.6 ± 0.4
same,lobeline-evoked total [3H]overflow,"[2]; lobeline 0.1 μM, mecamylamine 1 μM",0.9 ± 0.5
same,lobeline-evoked total [3H]overflow,"[2]; lobeline 0.1 μM, mecamylamine 10 μM",0.8 ± 0.3
same,lobeline-evoked total [3H]overflow,"[2]; lobeline 0.1 μM, mecamylamine 100 μM",0.5 ± 0.4
same,lobeline-evoked total [3H]overflow,"[2]; lobeline 1 μM, mecamylamine 0 μM",2.0 ± 0.6
same,lobeline-evoked total [3H]overflow,"[2]; lobeline 1 μM, mecamylamine 1 μM",4.9 ± 1.8
same,lobeline-evoked total [3H]overflow,"[2]; lobeline 1 μM, mecamylamine 10 μM",2.4 ± 0.5
same,lobeline-evoked total [3H]overflow,"[2]; lobeline 1 μM, mecamylamine 100 μM",0.7 ± 0.1
same,lobeline-evoked total [3H]overflow,"[2]; lobeline 3 μM, mecamylamine 0 μM",10.3 ± 0.8
same,lobeline-evoked total [3H]overflow,"[2]; lobeline 3 μM, mecamylamine 1 μM",10.8 ± 1.4
same,lobeline-evoked total [3H]overflow,"[2]; lobeline 3 μM, mecamylamine 10 μM",8.2 ± 1.5
same,lobeline-evoked total [3H]overflow,"[2]; lobeline 3 μM, mecamylamine 100 μM",6.5 ± 0.9
same,lobeline-evoked total [3H]overflow,"[2]; lobeline 10 μM, mecamylamine 0 μM",31.9 ± 2.2
same,lobeline-evoked total [3H]overflow,"[2]; lobeline 10 μM, mecamylamine 1 μM",32.5 ± 1.0
same,lobeline-evoked total [3H]overflow,"[2]; lobeline 10 μM, mecamylamine 10 μM",41.0 ± 6.2
same,lobeline-evoked total [3H]overflow,"[2]; lobeline 10 μM, mecamylamine 100 μM",20.0 ± 2.0
same,lobeline-evoked total [3H]overflow,"[2]; lobeline 100 μM, mecamylamine 0 μM",185.0 ± 12
same,lobeline-evoked total [3H]overflow,"[2]; lobeline 100 μM, mecamylamine 1 μM",180.0 ± 47.6
same,lobeline-evoked total [3H]overflow,"[2]; lobeline 100 μM, mecamylamine 10 μM",179.5 ± 12.2
same,lobeline-evoked total [3H]overflow,"[2]; lobeline 100 μM, mecamylamine 100 μM",160.4 ± 30.2
same,inhibition of lobeline-evoked [3H]overflow by mecamylamine,"[2]; mecamylamine 1-100 μM, lobeline 0.1-100 μM",not inhibited by mecamylamine
same,lowest concentration to evoke [3H]DA release from vesicles,"[3]; 8 min, 37° C.",10 µM
same,EC50,"[3]; 8 min, 37° C., read-out: EC50, evoked [3H]DA release from synaptic vesicles",25.3 µM and 25 µM
same,t1/2 of [3H]DA efflux from vesicles,[3]; drug at 10 times the EC50,1.58 ± 0.09 min
same,inhibition of monoamine oxidase,[4],does not inhibit monoamine oxidase
same,cardiovascular effects,[5],bradycardia and hypotension
